Measurements as given in US20230211362A1, “A METHOD OF COATING AN OCULAR PROSTHETIC DEVICE AND OTHER PROSTHETICS” (UEA Enterprises Limited, priority 2020, published 2023).
Where a name gives a salt, the structure may show the parent alone.

What was measured:
[1] = cited from earlier work
[2] = In vitro drug release tests of nanoelectrosprayed contact lenses in PBS 7.4 under sink conditions, HPLC (Example 4); type: physicochemical; details: zein film on contact lens (BIM1); 2 ml PBS 7.4, 35° C., 125 rpm; FIG. 32 bottom
Experimental: Glass vials containing 2 ml PBS 7.4 was incubated in a shaking incubator set at 35° C. with 125 rpm for 2 hours before in vitro experiments. All in vitro experiments were performed under sink conditions (i.e., the drug concentration within the in vitro dissolution medium was more than 10 times diluted in comparison to the saturated solubility of the drug in the medium). The nanoelectrosprayed lenses were placed into the vial and an aliquot of 1.5 ml was replaced with fresh PBS at regular intervals up to 24 hours (for KF the intervals were 0.5, 1, 3, 6, and 24 hours; for BIM the intervals were 0.25, 0.5, 0.75, 1, 2, 3, 4, 5, 6, and 24 hours). […] The total amount of ketotifen and bimatoprost sprayed on a contact lens was determined by the sum of the cumulative amount of the drug released during the in vitro study and the amount obtained from extraction.
The high-performance liquid chromatography system (Jasco, Japan) consists of a pump (PU-1580), an autosampler (AS-2055 Plus) and a 4-channel UV detector (UV-1570M). A Waters C18 column (250×4.6 mm i.d.; 5 μm particle size) was used under ambient conditions. The mobile phase of ketotifen fumarate and bimatoprost was prepared according to a method adopted from the literature. The mobile phase for ketotifen comprised methanol and 0.2% triethylamine (v/v) (80:20), running with 1 ml/min flow rate. […]

bimatoprost release after 6 hours [2] [%]	bimatoprost released in the first 30 minutes [2] [%]	Structure (SMILES)	Log P [1]	pKa (acid) [1]	solubility in aqueous solutions ([1]; slightly soluble in aqueous solutions) [µg/mL]
		CN1CCC(=C2c3ccccc3CC(=O)c3sccc32)CC1 [Ketotifen fumarate]	3.4	12.3	7.87
98	51	CCNC(=O)CCC/C=C\C[C@@H]1[C@@H](/C=C/[C@@H](O)CCc2ccccc2)[C@H](O)C[C@@H]1O [bimatoprost]			
